Values quoted from earlier work in patent US20040072764A1, “Composition, in particular cosmetic, containing 7-hydroxy dhea and/or 7-keto dhea and at least an isoflavonoid” (priority 2000, published 2004).

What was measured:
human keratinocytes = conditions: cited from WO 98/40074
skin = conditions: on rats; cited from WO 00/28996
fibroblasts = conditions: cited from WO 98/40074
[1] = cited from WO 98/40074

**Q.** What does the source list for C[C@]12CC[C@H](O)CC1=C[C@@H](O)[C@@H]1[C@@H]2CC[C@]2(C)C(=O)CC[C@@H]12 [7α-hydroxy-DHEA]?
**A.** viability of the human keratinocytes (human keratinocytes): increase; collagen content of the skin (skin): increased; elastin content of the skin (skin): increased; thickness of the dermis (skin): increased; proliferation of the fibroblasts (fibroblasts): increase; anti-free radical effects [1]: had anti-free radical effects
